Experimental data published in BindingDB's records for PubMed 11306677 (Upr 9023, 2001).
Where “and” joins values, the source holds several entries; their conditions need not be identical. Equal entries are not always repeated.

Key:
[1] = target: Metabotropic glutamate receptor 2 (Homo sapiens, UniProt Q14416)
[2] = target: Metabotropic glutamate receptor 5 (Rattus norvegicus, UniProt P31424)
[3] = target: Metabotropic glutamate receptor 1 (Rattus norvegicus, UniProt P23385)
Sequence of Metabotropic glutamate receptor 1 (P23385 whole entry): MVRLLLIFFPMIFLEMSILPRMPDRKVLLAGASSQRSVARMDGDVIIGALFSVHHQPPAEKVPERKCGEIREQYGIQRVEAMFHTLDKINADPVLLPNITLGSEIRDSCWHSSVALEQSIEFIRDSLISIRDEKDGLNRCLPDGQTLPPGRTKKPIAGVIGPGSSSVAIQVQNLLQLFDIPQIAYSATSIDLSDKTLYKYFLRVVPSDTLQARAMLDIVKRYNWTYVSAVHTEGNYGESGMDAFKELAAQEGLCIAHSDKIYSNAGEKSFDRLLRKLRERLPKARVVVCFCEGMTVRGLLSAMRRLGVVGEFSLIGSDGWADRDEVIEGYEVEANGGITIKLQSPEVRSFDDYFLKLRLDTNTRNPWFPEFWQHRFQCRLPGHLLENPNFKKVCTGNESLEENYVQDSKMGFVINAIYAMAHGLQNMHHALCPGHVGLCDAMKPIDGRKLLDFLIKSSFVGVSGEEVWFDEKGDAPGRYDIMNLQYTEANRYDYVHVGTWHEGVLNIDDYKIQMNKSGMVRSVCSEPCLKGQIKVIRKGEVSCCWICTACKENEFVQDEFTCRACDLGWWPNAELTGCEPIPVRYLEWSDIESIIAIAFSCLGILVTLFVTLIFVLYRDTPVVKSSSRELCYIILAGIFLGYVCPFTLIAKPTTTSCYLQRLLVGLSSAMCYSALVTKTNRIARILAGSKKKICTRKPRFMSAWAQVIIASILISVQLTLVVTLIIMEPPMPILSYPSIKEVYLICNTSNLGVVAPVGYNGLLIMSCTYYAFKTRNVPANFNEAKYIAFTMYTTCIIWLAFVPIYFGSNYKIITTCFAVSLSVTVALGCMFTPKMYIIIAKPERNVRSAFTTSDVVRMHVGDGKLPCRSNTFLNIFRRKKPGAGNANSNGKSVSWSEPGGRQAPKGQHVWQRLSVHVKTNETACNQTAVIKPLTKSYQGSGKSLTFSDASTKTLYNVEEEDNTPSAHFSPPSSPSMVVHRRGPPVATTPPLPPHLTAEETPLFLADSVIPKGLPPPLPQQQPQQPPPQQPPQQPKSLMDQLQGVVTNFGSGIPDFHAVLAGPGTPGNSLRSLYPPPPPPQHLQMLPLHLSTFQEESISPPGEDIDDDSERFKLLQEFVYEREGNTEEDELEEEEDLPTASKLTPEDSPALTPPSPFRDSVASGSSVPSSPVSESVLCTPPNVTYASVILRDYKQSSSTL

Sequence of Metabotropic glutamate receptor 5 (P31424 whole entry): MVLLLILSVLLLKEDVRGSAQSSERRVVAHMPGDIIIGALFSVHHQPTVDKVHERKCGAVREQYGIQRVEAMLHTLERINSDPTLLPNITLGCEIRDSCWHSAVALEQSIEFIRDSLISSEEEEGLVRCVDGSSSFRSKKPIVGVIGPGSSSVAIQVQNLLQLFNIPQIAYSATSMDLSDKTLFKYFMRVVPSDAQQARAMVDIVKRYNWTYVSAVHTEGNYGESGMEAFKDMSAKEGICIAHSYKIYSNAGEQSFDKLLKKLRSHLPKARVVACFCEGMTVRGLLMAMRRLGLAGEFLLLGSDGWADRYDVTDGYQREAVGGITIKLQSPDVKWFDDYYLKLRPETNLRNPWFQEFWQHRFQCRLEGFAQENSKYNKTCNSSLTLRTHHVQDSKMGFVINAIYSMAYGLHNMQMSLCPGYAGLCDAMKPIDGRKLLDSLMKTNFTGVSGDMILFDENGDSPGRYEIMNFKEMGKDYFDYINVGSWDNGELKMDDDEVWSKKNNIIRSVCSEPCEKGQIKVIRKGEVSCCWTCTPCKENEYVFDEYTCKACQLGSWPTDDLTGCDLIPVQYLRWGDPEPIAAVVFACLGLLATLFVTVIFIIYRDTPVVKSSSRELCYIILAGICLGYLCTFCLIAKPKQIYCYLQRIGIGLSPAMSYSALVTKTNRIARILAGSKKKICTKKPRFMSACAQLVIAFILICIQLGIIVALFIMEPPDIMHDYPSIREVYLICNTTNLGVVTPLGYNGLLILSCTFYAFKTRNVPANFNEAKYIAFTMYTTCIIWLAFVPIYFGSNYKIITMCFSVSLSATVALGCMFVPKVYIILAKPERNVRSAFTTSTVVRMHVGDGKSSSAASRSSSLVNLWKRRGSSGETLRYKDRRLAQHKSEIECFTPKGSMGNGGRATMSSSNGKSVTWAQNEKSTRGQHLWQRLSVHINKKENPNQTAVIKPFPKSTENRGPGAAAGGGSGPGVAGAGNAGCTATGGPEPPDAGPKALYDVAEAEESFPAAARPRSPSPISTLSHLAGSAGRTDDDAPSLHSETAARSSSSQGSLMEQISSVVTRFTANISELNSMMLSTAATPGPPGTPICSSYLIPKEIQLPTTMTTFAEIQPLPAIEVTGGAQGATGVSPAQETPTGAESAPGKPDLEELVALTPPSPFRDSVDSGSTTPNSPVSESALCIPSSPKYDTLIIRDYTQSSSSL
Sequence of Metabotropic glutamate receptor 2 (Q14416 whole entry): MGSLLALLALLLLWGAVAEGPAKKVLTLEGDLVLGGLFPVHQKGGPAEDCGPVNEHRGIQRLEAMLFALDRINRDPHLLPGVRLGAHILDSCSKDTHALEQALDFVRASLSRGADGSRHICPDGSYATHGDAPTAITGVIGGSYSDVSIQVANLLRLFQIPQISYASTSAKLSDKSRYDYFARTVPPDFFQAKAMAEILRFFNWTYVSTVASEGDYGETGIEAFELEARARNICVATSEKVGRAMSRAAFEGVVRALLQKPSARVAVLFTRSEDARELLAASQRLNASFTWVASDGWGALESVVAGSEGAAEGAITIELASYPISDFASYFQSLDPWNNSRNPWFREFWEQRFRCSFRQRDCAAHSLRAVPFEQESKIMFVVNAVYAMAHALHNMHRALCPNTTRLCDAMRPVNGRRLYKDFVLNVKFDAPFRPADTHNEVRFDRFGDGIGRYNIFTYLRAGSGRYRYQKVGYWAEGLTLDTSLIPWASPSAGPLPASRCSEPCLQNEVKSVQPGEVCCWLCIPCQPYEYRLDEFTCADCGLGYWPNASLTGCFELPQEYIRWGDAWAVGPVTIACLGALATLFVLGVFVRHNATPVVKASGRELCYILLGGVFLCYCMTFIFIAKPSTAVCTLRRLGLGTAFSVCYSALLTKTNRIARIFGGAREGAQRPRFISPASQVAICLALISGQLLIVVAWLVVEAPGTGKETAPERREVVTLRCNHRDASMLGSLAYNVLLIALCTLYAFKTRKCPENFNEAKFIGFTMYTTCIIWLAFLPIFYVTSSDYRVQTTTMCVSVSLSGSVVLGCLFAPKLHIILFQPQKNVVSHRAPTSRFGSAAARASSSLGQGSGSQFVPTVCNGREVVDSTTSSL

With `C=C1C[C@@H]2COC(=O)[C@]2(Cc2ccc3ccccc3c2)C1` the Ki [1] was 140 nM, the Ki [2] was 240 nM and 500 nM and the Ki [3] was greater than 10000 nM.
